Results from PubChem BioAssay (NCI).
Where “and” joins values, the source holds several entries; their conditions need not be identical. Equal values may be shown once.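 How tested: cells in 96-well plates exposed to compound for 48 hours at five concentrations. GI50 is the concentration that inhibits growth by half. TGI marks complete inhibition of growth.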

How the values were obtained:
Experiment in all cases: growth of human tumour cells (NCI), 48 h
[1] = tested on: OVCAR-5 ovarian
[2] = tested on: NCI-H522 lung
[3] = tested on: ACHN renal
[4] = tested on: NCI/ADR-RES ovarian
[5] = tested on: SW-620 colon
[6] = tested on: HS 578T breast
[7] = tested on: HT29 colon
[8] = tested on: DU-145 prostate
[9] = tested on: CCRF-CEM leukemia
[10] = tested on: SR leukemia

Row | Structure (SMILES) | GI50 [1] | TGI [1] | GI50 [2] | TGI [2] | TGI [3] | GI50 [4] | TGI [4] | GI50 [5] | TGI [5] | GI50 [6] | TGI [6] | GI50 [7] | TGI [7] | TGI [8] | TGI [9] | TGI [10] | GI50 [3] | GI50 [8] | GI50 [10] | GI50 [9]
1 | O=S(=O)(/C=C/C=C/S(=O)(=O)c1ccccc1)c1ccccc1 | 1900 nM | 5280 nM | 196 nM | 728 nM and 601 nM | 2060 nM and 2050 nM | 2160 nM | 3890 nM and 4680 nM | 316 nM | 433 nM and 2260 nM | 2930 nM | 8240 nM and 8070 nM | 1400 nM | 2690 nM and 2850 nM | 27700 nM | 691 nM and 424 nM | 2290 nM and 934 nM | – | – | – | –
2 | O=C1C=C(Nc2ccccc2)c2ncccc2C1=O | 1740 nM | 3400 nM | 704 nM | 2440 nM | 1220 nM | 330 nM | 1880 nM | 340 nM | 1280 nM | 2330 nM | 6580 nM | 2780 nM | > 26700 nM | 1120 nM | – | > 100000 nM | 349 nM | 341 nM | 691 nM | –
3 | C[C@H](c1ccc(Cl)cc1N)N1C(=O)c2cc(I)ccc2N(CCCN2CCN(C)CC2)C(=O)[C@@H]1c1ccc(Cl)cc1 | 1770 nM | 3440 nM | – | – | 2500 nM | 1700 nM | 3600 nM | 1720 nM | 3140 nM | 1740 nM | 3840 nM | 1820 nM | 3470 nM | 3310 nM | 3470 nM | 2600 nM | 1220 nM | 1790 nM | 1010 nM | 1630 nM
4 | Nc1ccccc1NC(=O)c1ccc(CSc2nc(N3CCOCC3)c3cccn3n2)cc1 | 985 nM | > 100000 nM | 339 nM | 2090 nM | > 100000 nM | 445 nM | > 100000 nM | 440 nM | > 100000 nM | 781 nM | > 100000 nM | 411 nM | 4540 nM | 37700 nM | > 100000 nM | > 100000 nM | 863 nM | 1630 nM | 301 nM | 246 nM
5 | CC(C)(Cl)CCC1=C(Cl)C(=O)c2ccccc2C1=O | 2250 nM | 5600 nM | 586 nM | 1910 nM | 3030 nM | 3290 nM | 19500 nM | 1740 nM | 3630 nM | 3260 nM | 45800 nM | 15600 nM | 31500 nM | 18200 nM | 4790 nM | 5690 nM | 1650 nM | 6120 nM | 2040 nM | 1220 nM
6 | COc1ccc(-c2cc(-c3ccc(Nc4nc(Nc5ccc(Cl)cc5)nc(Nc5ccc(Cl)cc5)n4)cc3)no2)cc1 | 19100 nM | 73500 nM | 7670 nM | 25500 nM | > 100000 nM | 16300 nM | 53900 nM | 11300 nM | 25600 nM | 20300 nM | > 100000 nM | 15100 nM | 59900 nM | 36300 nM | 11600 nM | 6500 nM | 27600 nM | 11400 nM | 2060 nM | 3270 nM
